US10738040B2, “Compounds, compositions, and methods for increasing CFTR activity” (Proteostasis Therapeutics, Inc., priority 2014, dated 2020)
Marks after values point to notes of the source that are not given here.

Assays:
[1] = target: T1, ΔF508-CFTR (Homo sapiens, UniProt P13569, DEL508-508); assay: hBE equivalent current (Ieq) assay; type: cell-based; conditions: compound at 10 uM and VX-809 at 1 uM, relative to VX-809 (1 uM); primary lung epithelial cells homozygous for ΔF508, 24 hours treatment; AUC of equivalent chloride current
T1 construct: Primary lung epithelial cells homozygous for the Cystic Fibrosis-causing ΔF508 mutation were differentiated; endogenous in cells; host or cells: primary human lung (bronchial) epithelial cells homozygous for ΔF508, differentiated at air-liquid interface
T1 sequence (P13569 with tags, fused parts or gaps DEL508-508): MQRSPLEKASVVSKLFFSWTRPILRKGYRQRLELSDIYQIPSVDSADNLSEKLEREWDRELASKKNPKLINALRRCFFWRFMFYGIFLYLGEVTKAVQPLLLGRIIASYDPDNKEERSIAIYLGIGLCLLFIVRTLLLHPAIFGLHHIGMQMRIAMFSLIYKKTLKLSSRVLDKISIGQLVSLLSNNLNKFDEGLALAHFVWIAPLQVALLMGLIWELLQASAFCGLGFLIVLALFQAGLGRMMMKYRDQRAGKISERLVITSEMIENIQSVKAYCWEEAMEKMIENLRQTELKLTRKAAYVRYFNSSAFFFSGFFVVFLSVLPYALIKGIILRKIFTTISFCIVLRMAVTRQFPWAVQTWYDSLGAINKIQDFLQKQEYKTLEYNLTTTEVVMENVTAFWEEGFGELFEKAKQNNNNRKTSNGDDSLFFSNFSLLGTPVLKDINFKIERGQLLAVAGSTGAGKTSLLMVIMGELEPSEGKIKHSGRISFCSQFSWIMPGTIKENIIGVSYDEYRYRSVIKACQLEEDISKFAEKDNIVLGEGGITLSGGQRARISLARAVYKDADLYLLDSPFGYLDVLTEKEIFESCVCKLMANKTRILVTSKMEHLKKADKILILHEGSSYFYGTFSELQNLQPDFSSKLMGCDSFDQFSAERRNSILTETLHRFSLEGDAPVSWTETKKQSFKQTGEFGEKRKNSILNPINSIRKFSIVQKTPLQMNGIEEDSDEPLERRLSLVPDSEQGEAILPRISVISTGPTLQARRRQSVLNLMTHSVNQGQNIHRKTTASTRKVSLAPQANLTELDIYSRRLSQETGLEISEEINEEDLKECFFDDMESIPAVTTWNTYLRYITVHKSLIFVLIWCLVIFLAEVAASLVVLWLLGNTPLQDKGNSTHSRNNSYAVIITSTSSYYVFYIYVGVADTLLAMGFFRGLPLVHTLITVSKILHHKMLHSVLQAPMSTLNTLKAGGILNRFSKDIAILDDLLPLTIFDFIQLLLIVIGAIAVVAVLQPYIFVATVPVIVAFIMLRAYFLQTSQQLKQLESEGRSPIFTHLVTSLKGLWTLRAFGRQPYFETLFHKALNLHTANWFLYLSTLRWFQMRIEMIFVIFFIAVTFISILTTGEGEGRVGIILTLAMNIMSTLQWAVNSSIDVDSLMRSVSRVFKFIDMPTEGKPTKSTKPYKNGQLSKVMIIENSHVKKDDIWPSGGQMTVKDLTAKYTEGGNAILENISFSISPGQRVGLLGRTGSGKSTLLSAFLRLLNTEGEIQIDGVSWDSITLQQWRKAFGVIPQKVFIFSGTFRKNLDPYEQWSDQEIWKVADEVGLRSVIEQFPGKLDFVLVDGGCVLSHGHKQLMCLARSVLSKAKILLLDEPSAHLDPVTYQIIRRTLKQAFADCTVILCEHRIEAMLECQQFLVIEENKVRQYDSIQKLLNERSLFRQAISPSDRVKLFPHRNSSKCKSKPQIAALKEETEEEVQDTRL
Description: ii. hBE Equivalent Current (Ieq) Assay
Primary lung epithelial cells homozygous for the Cystic Fibrosis-causing ΔF508 mutation were differentiated for a minimum of 4 weeks in an air-liquid interface on Costar 24 well HTS filter plates prior to the equivalent current (Ieq) measurements. Cells were apically mucus-washed for 30 minutes 24 h prior to treatment with compounds. The basolateral media was removed and replaced with media containing the compound of interest diluted to its final concentration from DMSO stocks. Treated cells were incubated at 37° C. and 5% CO2 for 24 hours. At the end of the treatment period, the media was changed to the Ieq experimental solution for 30 minutes before the experiment and plates are maintained in a CO2-free incubator during this period. The plates containing the cells were then placed in pre-warmed heating blocks at 36° ° C.±0.5 for 15 minutes before measurements are taken. The transepithelial voltage (VT) and conductance (GT) were measured using a custom 24 channel current clamp (TECC-24) with 24 well electrode manifold. The Ieq assay measurements were made following additions with standardized time periods: • 1. The baseline VT and GT values were measured for approximately 20 minutes. • 2. Benzamil was added to block ENaC for 15 minutes. • 3. Forskolin plus VX-770 (ivacaftor) were added to maximally activate ΔF508-CFTR for 27 minutes. • 4. Bumetanide was added to inhibit the NaK2Cl cotransporter and shut-off secretion of chloride.
The activity data captured was the area under the curve (AUC) for the traces of the equivalent chloride current. The AUC was collected from the time of the forskolin/VX-770 addition until the inhibition by bumetanide addition. Correction in response to compound treatment was scored as the increase in the AUC for compound-treated samples over that of vehicle-treated samples.

[2] = target: T1, ΔF508-CFTR; assay: Ussing measurements (short-circuit current, CFTRinh-172-inhibitable); type: cell-based; conditions: compound at 10 uM and VX-809 at 3 uM, relative to VX-809 (3 uM); hBEs homozygous for ΔF508, 24 hours treatment; CFTRinh-172-inhibitable current
Description: As discussed above, Ussing measurements can be used to measure CFTR activity. In this method, primary lung epithelial cells (hBEs) homozygous for the Cystic Fibrosis-causing ΔF508 mutation were differentiated for a minimum of 4 weeks in an air-liquid interface on SnapWell filter plates prior to the Ussing measurements. Cells were apically mucus-washed for 30 minutes prior to treatment with compounds. The basolateral media was removed and replaced with media containing the compound of interest diluted to its final concentration from DMSO stocks. Treated cells were incubated at 37° C. and 5% CO2 for 24 hours. At the end of the treatment period, the cells on filters were transferred to the Ussing chamber and equilibrated for 30 minutes. The short-circuit current was measured in voltage clamp-mode (Vhold=0 mV), and the entire assay was conducted at a temperature of 36° C.-36.5° C. Once the voltages stabilized, the chambers were clamped, and data was recorded by pulse readings every 5 seconds. Following baseline current stabilization, the following additions were applied and the changes in current and resistance of the cells was monitored: • 1. Benzamil to the apical chamber to inhibit ENaC sodium channel. • 2. Forskolin to both chambers to activate ΔF508-CFTR by phosphorylation. • 3. Genistein to both chambers to potentiate ΔF508-CFTR channel opening. • 4. CFTRinh-172 to the apical chamber to inhibit ΔF508-CFTR Cl— conductance. The inhibitable current (that current that is blocked by CFTRinh-172) is measured as the specific activity of the ΔF508-CFTR channel, and increases in response to compound in this activity over that observed in vehicle-treated samples are identified as the correction of ΔF508-CFTR function imparted by the compound tested.

Row | SMILES | Ieq (% VX-809) [1] | Ussing (% VX-809) [2]
1 | C[C@H](O)c1nnc([C@H]2C[C@@H](NC(=O)c3cc(-c4ccccc4)on3)C2)s1 | ** (activity ≥200% of VX-809 (1 uM) with compound at 10 uM and VX-809 at 1 uM) | ## (activity ≥200% of VX-809 (3 uM) with compound at 10 uM and VX-809 at 3 uM)
2 | C[C@@H](O)c1cnnn1[C@H]1C[C@H](NC(=O)c2cc(-c3ccccc3)on2)C1 | ** (activity ≥200% of VX-809 (1 uM) with compound at 10 uM and VX-809 at 1 uM) | ## (activity ≥200% of VX-809 (3 uM) with compound at 10 uM and VX-809 at 3 uM)
3 | C[C@@H](O)c1nnc([C@H]2C[C@H](NC(=O)c3cc(-c4ccccc4)on3)C2)s1 | ** (activity ≥200% of VX-809 (1 uM) with compound at 10 uM and VX-809 at 1 uM) | ## (activity ≥200% of VX-809 (3 uM) with compound at 10 uM and VX-809 at 3 uM)
4 | C[C@@H](O)c1nnc(C[C@H]2C[C@H](NC(=O)c3cc(-c4ccccc4)on3)C2)o1 | ** (activity ≥200% of VX-809 (1 uM) with compound at 10 uM and VX-809 at 1 uM) | ## (activity ≥200% of VX-809 (3 uM) with compound at 10 uM and VX-809 at 3 uM)
5 | C[C@@H](O)c1nnc([C@H]2C[C@@H](NC(=O)c3cc(-c4ccccc4)on3)C2)s1 | ** (activity ≥200% of VX-809 (1 uM) with compound at 10 uM and VX-809 at 1 uM) | ## (activity ≥200% of VX-809 (3 uM) with compound at 10 uM and VX-809 at 3 uM)
6 | O=C(N[C@H]1C[C@H](c2noc(CO)n2)C1)c1cc(-c2ccccc2)on1 | ** (activity ≥200% of VX-809 (1 uM) with compound at 10 uM and VX-809 at 1 uM) | ## (activity ≥200% of VX-809 (3 uM) with compound at 10 uM and VX-809 at 3 uM)
7 | O=C(N[C@H]1C[C@@H](n2cc(CO)nn2)C1)c1cc(-c2ccccc2)on1 | ** (activity ≥200% of VX-809 (1 uM) with compound at 10 uM and VX-809 at 1 uM) | ## (activity ≥200% of VX-809 (3 uM) with compound at 10 uM and VX-809 at 3 uM)
8 | O=C(NC1CC(c2nc(CO)no2)C1)c1cc(-c2ccccc2)on1 (centres unmarked) | ** (activity ≥200% of VX-809 (1 uM) with compound at 10 uM and VX-809 at 1 uM) | ## (activity ≥200% of VX-809 (3 uM) with compound at 10 uM and VX-809 at 3 uM)
9 | O=C(N[C@H]1C[C@@H](c2noc(CO)n2)C1)c1cc(-c2ccccc2)on1 | ** (activity ≥200% of VX-809 (1 uM) with compound at 10 uM and VX-809 at 1 uM) | ## (activity ≥200% of VX-809 (3 uM) with compound at 10 uM and VX-809 at 3 uM)
10 | O=C(N[C@H]1C[C@H](n2nncc2CO)C1)c1cc(-c2ccccc2)on1 | ++ * | ## (activity ≥200% of VX-809 (3 uM) with compound at 10 uM and VX-809 at 3 uM)
11 | C[C@@H](O)c1nnc(C[C@H]2C[C@H](NC(=O)c3cc(-c4ccccc4)on3)C2)s1 | ** (activity ≥200% of VX-809 (1 uM) with compound at 10 uM and VX-809 at 1 uM) | ## (activity ≥200% of VX-809 (3 uM) with compound at 10 uM and VX-809 at 3 uM)
12 | C[C@H](O)c1nnc([C@H]2C[C@H](NC(=O)c3cc(-c4ccccc4)on3)C2)s1 | ** (activity ≥200% of VX-809 (1 uM) with compound at 10 uM and VX-809 at 1 uM) | ## (activity ≥200% of VX-809 (3 uM) with compound at 10 uM and VX-809 at 3 uM)
13 | C[C@H](O)c1nnc(C2CC(NC(=O)c3cc(-c4ccccc4)on3)C2)o1 (some centres unmarked) | ** (activity ≥200% of VX-809 (1 uM) with compound at 10 uM and VX-809 at 1 uM) | ## (activity ≥200% of VX-809 (3 uM) with compound at 10 uM and VX-809 at 3 uM)
14 | C[C@@H](O)c1nnc(C2CC(NC(=O)c3cc(-c4ccccc4)on3)C2)o1 (some centres unmarked) | ** (activity ≥200% of VX-809 (1 uM) with compound at 10 uM and VX-809 at 1 uM) | ## (activity ≥200% of VX-809 (3 uM) with compound at 10 uM and VX-809 at 3 uM)
15 | O=C(N[C@H]1C[C@H](c2nnc(CO)s2)C1)c1cc(-c2ccccc2)on1 | ** (activity ≥200% of VX-809 (1 uM) with compound at 10 uM and VX-809 at 1 uM) | ## (activity ≥200% of VX-809 (3 uM) with compound at 10 uM and VX-809 at 3 uM)
16 | C[C@@H](O)c1nnc([C@H]2C[C@@H](NC(=O)c3cc(-c4ccccc4)on3)C2)o1 | ** (activity ≥200% of VX-809 (1 uM) with compound at 10 uM and VX-809 at 1 uM) | ## (activity ≥200% of VX-809 (3 uM) with compound at 10 uM and VX-809 at 3 uM)
17 | C[C@H](c1nnc([C@H]2C[C@H](NC(=O)c3cc(-c4ccccc4)on3)C2)o1)S(C)(=O)=O | * (activity 100-200% of VX-809 (1 uM) with compound at 10 uM and VX-809 at 1 uM) | ## (activity ≥200% of VX-809 (3 uM) with compound at 10 uM and VX-809 at 3 uM)
18 | O=C(N[C@H]1C[C@H](n2cc(CO)nn2)C1)c1cc(-c2ccccc2)on1 | ++ * | ## (activity ≥200% of VX-809 (3 uM) with compound at 10 uM and VX-809 at 3 uM)
19 | CO[C@H](C)c1nnc([C@H]2C[C@@H](NC(=O)c3cc(-c4ccccc4)on3)C2)o1 | * (activity 100-200% of VX-809 (1 uM) with compound at 10 uM and VX-809 at 1 uM) | ## (activity ≥200% of VX-809 (3 uM) with compound at 10 uM and VX-809 at 3 uM)
20 | C[C@H](O)c1cnnn1[C@H]1C[C@H](NC(=O)c2cc(-c3ccccc3)on2)C1 | ** (activity ≥200% of VX-809 (1 uM) with compound at 10 uM and VX-809 at 1 uM) | # (activity 100-200% of VX-809 (3 uM) with compound at 10 uM and VX-809 at 3 uM)
21 | O=C(N[C@H]1C[C@@H](n2nncc2CO)C1)c1cc(-c2ccccc2)on1 | ** (activity ≥200% of VX-809 (1 uM) with compound at 10 uM and VX-809 at 1 uM) | ## (activity ≥200% of VX-809 (3 uM) with compound at 10 uM and VX-809 at 3 uM)
22 | C[C@H](O)c1nnc(C[C@H]2C[C@H](NC(=O)c3cc(-c4ccccc4)on3)C2)s1 | ** (activity ≥200% of VX-809 (1 uM) with compound at 10 uM and VX-809 at 1 uM) | ## (activity ≥200% of VX-809 (3 uM) with compound at 10 uM and VX-809 at 3 uM)
